Source: patent US20260199350A1, “FLAVONES, QUINOLINONES, QUINAZOLINONES, AND AURONES, AND USES IN CK2-MEDIATED DISEASES” (Salk Institute for Biological Studies, priority 2022, published 2026)
≈ marks a conversion by molar mass, not a printed value. Where two headings read alike, the source gives them in different places.

Experiments:
IL-6 secretion = IL-6 secretion assay in astrocytes (Promega Lumit IL-6 kit); assay type: cell-based, human; settings: Homo sapiens, Astrocyte, read-out: IL6-Inhib.
Description: IL-6 secretion assay. HCAs were plated at 20,000 cells per well in white clear bottom 96-well plates. Two to three days later, media was removed and replaced with media containing 10 ng/mL IL1B and compound dilution series. Five hours later, plates were processed using the Lumit IL-6 Assay Kit (Promega W6030) according to the manufacturer's instructions.
• ^1Radiometric kinase assay from Eurofins. Performed in astrocytes with a Promega Lumit IL-6 kit. A series of halogenated flavones was generated and assayed (Table 3).

CK2A1 = target: T1, CK2A1 (Homo sapiens, UniProt P68400); assay: Radiometric kinase assay (Eurofins), CK2A1; assay type: biochemical; settings: read-out: CK2A1 RAD IC50
T1 construct: purchased Eurofins
Description: FIGS. 4A-4F characterize flavones for in vitro and in-cell CK2 inhibition. […] Representative of two independent experiments. […] Nonlinear fit was used to calculate IC50. […] Nonlinear fit was used to calculate IC50. […] Nonlinear fit was used to calculate IC50. […] Normalized to DMSO, data are representative of three independent experiments.
(§1) • ^1Radiometric kinase assay from Eurofins. Performed in astrocytes with a Promega Lumit IL-6 kit.

CK2A2 = target: T2, CK2A2 (Homo sapiens, UniProt P19784); assay: Radiometric kinase assay (Eurofins), CK2A2; assay type: biochemical; settings: read-out: CK2A2 RAD IC50
T2 construct: purchased Eurofins
Description: as §1

Aqueous solubility = assay type: physicochemical; settings: read-out: Aqueous Solubility
[1] = aqueous (not further specified), Table 3

T1 sequence (P68400 whole entry): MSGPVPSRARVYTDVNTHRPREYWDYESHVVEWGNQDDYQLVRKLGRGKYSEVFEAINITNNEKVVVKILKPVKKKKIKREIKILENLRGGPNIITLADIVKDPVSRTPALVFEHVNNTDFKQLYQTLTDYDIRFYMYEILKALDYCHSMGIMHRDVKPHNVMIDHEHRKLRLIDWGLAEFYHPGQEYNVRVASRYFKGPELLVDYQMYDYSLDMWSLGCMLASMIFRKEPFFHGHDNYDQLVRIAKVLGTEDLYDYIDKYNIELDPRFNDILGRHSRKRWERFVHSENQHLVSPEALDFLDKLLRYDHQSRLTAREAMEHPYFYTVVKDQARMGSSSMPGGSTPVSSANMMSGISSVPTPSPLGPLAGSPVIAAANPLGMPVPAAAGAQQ
T2 sequence (P19784 whole entry): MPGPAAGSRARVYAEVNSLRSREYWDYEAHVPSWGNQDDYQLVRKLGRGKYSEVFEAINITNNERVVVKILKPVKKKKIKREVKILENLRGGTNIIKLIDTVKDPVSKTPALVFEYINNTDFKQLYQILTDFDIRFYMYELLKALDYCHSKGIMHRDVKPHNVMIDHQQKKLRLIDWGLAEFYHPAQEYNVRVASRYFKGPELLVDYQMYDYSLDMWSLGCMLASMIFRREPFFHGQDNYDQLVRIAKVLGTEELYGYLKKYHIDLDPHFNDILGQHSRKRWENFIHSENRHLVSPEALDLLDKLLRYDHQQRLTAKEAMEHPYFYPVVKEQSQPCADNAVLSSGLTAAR

Row | Compound | IC50 (IL-6 secretion; Table 3) | IC50 (CK2A1; Table 3, halogenated flavones) | IC50 (CK2A2; Table 3, halogenated flavones) | solubility (Aqueous solubility; [1]) | further results
1 | O=c1cc(-c2ccc(O)c(I)c2)oc2c(Br)cc(Br)cc12 [JKT.724A] | 3800 nM | 19 nM | 7 nM | 11.2 µM (≈ 5.85 µg/mL) | –
2 | O=c1cc(-c2ccc(O)c(Cl)c2)oc2c(Cl)cc(Cl)cc12 [JKT.725A] | 4800 nM | 15 nM | 12 nM | 39.9 µM (≈ 13.6 µg/mL) | –
3 | O=C1/C(=C/c2ccc(O)c(Cl)c2)Oc2c(Br)cc(Br)cc21 [JKT.726A] | – | – | – | – | IC50 (IL-6 secretion; Table 11): 3400 nM; IC50 (CK2A1; Table 11, aurones): 44 nM; IC50 (CK2A2; Table 11, aurones): 26 nM; solubility (Aqueous solubility; Table 11): 7.8 µM (≈ 3.36 µg/mL)
4 | O=C1/C(=C/c2ccc(O)cc2Cl)Oc2c(Br)cc(Br)cc21 [JKT.727A] | – | – | – | – | IC50 (IL-6 secretion; Table 11): 4700 nM; IC50 (CK2A1; Table 11, aurones): > 5000 nM; IC50 (CK2A2; Table 11, aurones): > 5000 nM; solubility (Aqueous solubility; Table 11): 73.7 µM (≈ 31.7 µg/mL)
5 | O=C1/C(=C/c2ccc(O)c(I)c2)Oc2c(Br)cc(Br)cc21 [JKT.728A] | – | – | – | – | IC50 (IL-6 secretion; Table 11): 1700 nM; IC50 (CK2A1; Table 11, aurones): 81 nM; IC50 (CK2A2; Table 11, aurones): 70 nM; solubility (Aqueous solubility; Table 11): 17.7 µM (≈ 9.24 µg/mL)
6 | O=c1[nH]c(-c2ccc(O)c(Br)c2)nc2c(Br)cc(Br)cc12 [JKT.734C] | – | – | – | – | IC50 (IL-6 secretion; Table 8): > 10000 nM; IC50 (CK2A1; Table 8, quinazolinones): 24 nM; IC50 (CK2A2; Table 8, quinazolinones): 42 nM; solubility (Aqueous solubility; aqueous medium (not further specified), Table 8): > 200 µM
7 | COc1cc(-c2cc(=O)c3cc(Br)cc(Br)c3[nH]2)ccc1O [JKT.736A] | – | – | – | – | IC50 (IL-6 secretion; Table 6): 3900 nM; IC50 (CK2A1; Table 6, quinolinones): 22 nM; IC50 (CK2A2; Table 6, quinolinones): 15 nM; solubility (Aqueous solubility; Table 6): 10 µM (≈ 4.25 µg/mL)
8 | COc1cc(-c2nc3c(Br)cc(Br)cc3c(=O)[nH]2)ccc1O [JKT.737B] | – | – | – | – | IC50 (IL-6 secretion; Table 8): > 10000 nM; IC50 (CK2A1; Table 8, quinazolinones): 863 nM; IC50 (CK2A2; Table 8, quinazolinones): 2850 nM
9 | COc1c(Br)cc2c(=O)cc(-c3ccc(O)c(Br)c3)oc2c1Br [JKT.745A] | 3000 nM | 20 nM | 11 nM | > 200 µM | –
10 | COc1c(Br)cc2c(=O)cc(-c3ccc(O)c(C(F)(F)F)c3)oc2c1Br [JKT.750A] | 2200 nM | 580 nM | 466 nM | 124 µM (≈ 61.5 µg/mL) | –
11 | O=c1cc(-c2ccc(O)c(C(F)(F)F)c2)oc2c(Br)cccc12 [JKT.751A] | 5000 nM | 635 nM | 637 nM | 4 µM (≈ 1.54 µg/mL) | –
12 | O=C1/C(=C/c2ccc(O)cc2Br)Oc2c(Br)cc(Br)cc21 [JKT.758A] | – | – | – | – | IC50 (IL-6 secretion; Table 11): 3000 nM; IC50 (CK2A1; Table 11, aurones): > 5000 nM; IC50 (CK2A2; Table 11, aurones): > 5000 nM; solubility (Aqueous solubility; Table 11): 2.7 µM (≈ 1.28 µg/mL)
13 | COc1c(Br)cc2c(c1Br)O/C(=C\c1ccc(O)c(Br)c1)C2=O [JKT.759A] | – | – | – | – | IC50 (IL-6 secretion; Table 11): 2300 nM; IC50 (CK2A1; Table 11, aurones): 57 nM; IC50 (CK2A2; Table 11, aurones): 44 nM; solubility (Aqueous solubility; Table 11): 3.6 µM (≈ 1.82 µg/mL)
14 | COc1c(Br)cc2c(c1Br)O/C(=C\c1ccc(O)cc1Br)C2=O [JKT.760A] | – | – | – | – | IC50 (IL-6 secretion; Table 11): 9400 nM; IC50 (CK2A1; Table 11, aurones): > 5000 nM; IC50 (CK2A2; Table 11, aurones): > 5000 nM; solubility (Aqueous solubility; Table 11): 184 µM (≈ 92.7 µg/mL)
15 | COc1nc(-c2nc3c(Br)nc(Br)cc3c(=O)[nH]2)ccc1O [JKT.976B] | – | – | – | – | IC50 (IL-6 secretion; Table 8): > 10000 nM; IC50 (CK2A1; Table 8, quinazolinones): 234 nM; IC50 (CK2A2; Table 8, quinazolinones): 495 nM

Second part, led by results:

Row | IC50 (IL-6 secretion; Table 3) | IC50 (CK2A1; Table 3, halogenated flavones) | IC50 (CK2A2; Table 3, halogenated flavones) | solubility (Aqueous solubility; [1]) | Compound | further results
16 | 2600 nM | 10 nM | 5 nM | 19.6 µM (≈ 8.44 µg/mL) | O=c1cc(-c2ccc(O)c(Cl)c2)oc2c(Br)cc(Br)cc12 [JKT.721A] | –
17 | 2200 nM | 10 nM | 7 nM | 27.5 µM (≈ 10.6 µg/mL) | O=c1cc(-c2ccc(O)c(Cl)c2)oc2c(Br)cc(Cl)cc12 [JKT.722A] | –
18 | 3700 nM | 13 nM | 17 nM | 5 µM (≈ 1.98 µg/mL) | O=c1cc(-c2ccc(O)c(Br)c2)oc2c(Br)cccc12 [JKT.744B] | –
19 | 3900 nM | 24 nM | 9 nM | 24.3 µM (≈ 11.2 µg/mL) | COc1c(Br)cc2c(=O)cc(-c3ccc(O)c(Cl)c3)oc2c1Br [JKT.748A] | –
20 | 4800 nM | 11 nM | 18 nM | 36.5 µM (≈ 12.8 µg/mL) | O=c1cc(-c2ccc(O)c(Cl)c2)oc2c(Br)cccc12 [JKT.749A] | –
21 | > 10000 nM | > 5000 nM | 1850 nM | 109 µM (≈ 50.5 µg/mL) | COc1c(Br)cc2c(=O)cc(-c3cc(F)c(O)c(F)c3)oc2c1Br [JKT.753A] | –
